Test results: patent publication US20240400986A1, “MEMBRANE BOUND COMPOSITIONS AND METHODS RELATING TO SAME” (FLAGSHIP PIONEERING INNOVATIONS VII, LLC, priority 2021, published 2024)
Structures can show the parent of a compound that is named as a salt. Where two headings read alike, the source gives them in different places.

Legend:
[1] = system: neuronal cell line derived from human neuroblastoma; assay: Small molecule compound screen of gigasome production in neuronal monocultures; conditions: for Fold Change of Gigasomes Produced vs. DMSO / Number of Gigasomes Produced: neuronal cells, 24 hours; for fold induction at 0.01 µM / fold induction at 10 µM / fold induction at 0.1 µM / fold induction at 1 µM: Homo sapiens, read-out: Fold Change of Gigasomes Produced vs. DMSO
Excerpt: To quantify and characterize gigasome production using microscopy, while tracking cell viability/phenotype, a multi-readout system was developed that allowed simultaneous analysis of gigasomes harvested from cell culture media supernatants and respective gigasome producing cell viability. […] For the screening, a total of 99 compounds (TargetMol) were divided in 5 groups. Each group included an untreated condition, a vehicular DMSO control, and a known high-gigasome producing condition to comparatively study gigasome production rates. As a cell death control group, 500 nM Staurosporine was added to induce apoptosis. Cultures were incubated for 24 hours under gigasome inducing conditions at concentrations ranging between 10 nM and 10,000 nM. Before the end of the treatment, live neuronal cultures were imaged. The Zeiss ZEN Blue software was used to distribute imaging fields of view (positions) to create an unbiased imaging sample of a well. 5 images were taken using a Zeiss LSM 900 confocal microscope. […] The BioApps ZEN software package was used to perform cell nucleus segmentation and counting. After 24 hours, gigasomes were harvested from the cell culture media by gently removing from the top of each 96-well ⅔ of the total volume without disturbing the cell layer (containing the settled gigasomes) and by adding to each well the same amount of PBS. The wells were washed twice gently, and the gigasome-containing media/PBS wash was transferred into the well of a 384-well glass bottom plate. Cells remaining in the 96-well plates were assessed for viability using CellTiter-Glo (Promega).
For gigasome analysis in 384-well plates, the Zeiss ZEN Blue software was used to distribute positions to create an unbiased imaging sample of a well. 6 images per well were taken using a Zeiss LSM 900 confocal microscope.
A watershed binary segmentation step was performed to separate grouped objects. For each particle in the mask, characteristic parameters of the particle were calculated and saved.
Particles of interest were identified by thresholding by area and circularity. […] Circularity, defined by the formula 4pi(area/perimeter^2, was set to be between 0.8 and 1, where a value of 1.0 is a perfect circle, and a value of 0 is a line. Gigasomes were identified from the particles of interest by thresholding by mean nuclear signal. The nuclear signal threshold was set using a value equal to one fourth of a threshold value calculated by the Li auto-threshold algorithm applied to the distribution of all particles of interest. Particles of interest with nuclear signal below this value were considered “negative” for nuclear material and were identified as gigasomes. A sampling factor was calculated to extrapolate the total quantity of a type of object (particles, particles of interest, gigasomes) in the well. The sampling factor was the percentage of the well's area that was imaged. […] The normalized quantity or distribution of objects was described as a quantity or distribution of objects per 1000 cells.

[2] = system: cardiomyocytic cell line derived from human ventricular heart tissue; assay: Small molecule compound screen of gigasome production in cardiomyocytic monocultures;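 as to all read-outs here: gigasomes shed into the culture medium were imaged by confocal microscopy and counted as round particles lacking nuclear signal, extrapolated to the whole well, fold change is relative to DMSO vehicle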; conditions: for fold induction at 0.1 µM / fold induction at 0.01 µM / fold induction at 1 µM / fold induction at 10 µM: Homo sapiens, Cardiomyocyte, read-out: Fold Change of Gigasomes Produced vs. DMSO
[3] = system: neuronal cell line derived from human neuroblastoma
[4] = system: cardiomyocytic cell line derived from human ventricular heart tissue; assay: Cell viability in cardiomyocyte compound screen (CellTiter-Glo); assay type: cell-based
Excerpt: Cells were stained with Hoechst 34580, CellTracker Green/CellMask Green Actin and MitoTracker Deep Red to detect nuclear material, cytoplasm/F-actin, and mitochondria, respectively, and cultured in poly-L-lysine-coated 96-well glass bottom plates at 15,800 cells/cm^2 and allowed to adhere overnight. For the screening, a total of 100 randomly organized compounds (TargetMol) were divided in 5 groups. Each group included an untreated condition, a vehicular DMSO control, and a known high-gigasome producing condition to comparatively study gigasome production rates. As a cell death control group, 500 nM Staurosporine was added to induce apoptosis. Cultures were incubated for 24 hours under gigasome inducing conditions at concentrations ranging between 10 nM and 10,000 nM. […] Cells remaining in the 96-well plates were assessed for viability using CellTiter-Glo (Promega).

[5] = Table 22, dose 100 nM, cardiomyocytes, 24 hours
[6] = neuronal cells, dose 10 nM, 24 hours
[7] = neuronal cells, dose 100 nM, 24 hours
[8] = neuronal cells, dose 1000 nM, 24 hours
[9] = Table 22, dose 1000 nM, cardiomyocytes, 24 hours
[10] = Table 22, dose 10000 nM, cardiomyocytes, 24 hours
[11] = neuronal cells, dose 10000 nM, 24 hours
[12] = Table 22, dose 10 nM, cardiomyocytes, 24 hours
[13] = Table 23 (down-regulators), dose 10 nM, cardiomyocytes
[14] = Table 23 (down-regulators), dose 100 nM, cardiomyocytes
[15] = Table 23 (down-regulators), dose 1000 nM, cardiomyocytes
[16] = Table 23 (down-regulators), dose 10000 nM, cardiomyocytes

| Compound | Number of Gigasomes Produced ([1]; dose 10 nM) | Number of Gigasomes Produced ([1]; dose 100 nM) | Number of Gigasomes Produced ([1]; dose 1000 nM) | Number of Gigasomes Produced [2, 5] | Viability [3, 6] [%] | Viability [3, 7] [%] | Viability [3, 8] | Viability [4, 5] | Number of Gigasomes Produced ([1]; dose 10000 nM) | Viability [3, 11] | fold induction at 0.01 µM ([1]; 24 h) | fold induction at 10 µM ([1]; 24 h) | fold induction at 0.1 µM ([2]; 24 h) | fold induction at 0.01 µM ([2]; 24 h) | fold induction at 1 µM ([2]; 24 h) | Number of Gigasomes Produced [2, 13] | Number of Gigasomes Produced [2, 14] | Number of Gigasomes Produced [2, 15] | Number of Gigasomes Produced [2, 16] | further results |
| --- | --- | --- | --- | --- | --- | --- | --- | --- | --- | --- | --- | --- | --- | --- | --- | --- | --- | --- | --- | --- |
| COc1ccc(C[C@H]2NC[C@H](O)[C@H]2OC(C)=O)cc1 [Anisomycin] | <35 | 65-75 | 65-75 | 150-175 | 100 | >75 | 50-75% | 50-75% |  |  |  |  |  |  |  |  |  |  |  | Fold Change of Gigasomes Produced vs. DMSO ([1]; dose 10 nM): 1.0-1.25; Fold Change of Gigasomes Produced vs. DMSO ([1]; dose 100 nM): 1.75-2.0; Fold Change of Gigasomes Produced vs. DMSO ([1]; dose 1000 nM): 1.75-2.0; Fold Change of Gigasomes Produced vs. DMSO [2, 5]: 1.25-1.5 |
| CO/C1=C\C(C)=C\[C@@H](C)[C@@H](O)[C@@H](C)C/C(C)=C/C=C/[C@H](OC)[C@@H]([C@@H](C)[C@@H](O)[C@H](C)[C@@]2(O)C[C@@H](O)[C@H](C)[C@@H](C(C)C)O2)OC1=O [Bafilomycin A1, reference compound] | 85-95 | 105-115 | >115 | 225-250 | >75 | 100 | >75% | >75% | >115 | >75% |  |  |  |  |  |  |  |  |  | Fold Change of Gigasomes Produced vs. DMSO ([1]; dose 10 nM): 1.75-2.0; Fold Change of Gigasomes Produced vs. DMSO ([1]; dose 100 nM): 2.0-3.0; Fold Change of Gigasomes Produced vs. DMSO ([1]; dose 1000 nM): 2.0-3.0; Fold Change of Gigasomes Produced vs. DMSO ([1]; dose 10000 nM): 3.0-4.0; Fold Change of Gigasomes Produced vs. DMSO [2, 5]: 1.5-1.75; Fold Change of Gigasomes Produced vs. DMSO [2, 9]: 1.75-2.0; Number of Gigasomes Produced [2, 9]: 250-275; Fold Change of Gigasomes Produced vs. DMSO [2, 10]: 1.75-2.0; Number of Gigasomes Produced [2, 10]: 250-275; Viability [4, 9]: >75%; Viability [4, 10]: >75% |
| C=C(C)[C@@H]1CC[C@]2(CO)CC[C@]3(C)[C@H](CC[C@@H]4[C@@]5(C)CC[C@H](O)C(C)(C)[C@@H]5CC[C@]43C)[C@@H]12 [Betulin] | 45-55 |  |  | 175-200 | 100 |  |  | 100% | 35-45 | 100% | 1.25 to 1.5 | 1 to 1.25 | 1.5 to 1.75 |  |  |  |  |  |  |  |
| C[C@H]1CCC/C=C/[C@@H]2C[C@H](O)C[C@H]2[C@H](O)/C=C/C(=O)O1 [Brefeldin A] | 45-55 |  |  |  | 100 |  |  |  |  |  |  |  |  |  |  |  |  |  |  | Fold Change of Gigasomes Produced vs. DMSO ([1]; dose 10 nM): 1.5-1.75; Fold Change of Gigasomes Produced vs. DMSO [2, 12]: 1.25-1.5; Number of Gigasomes Produced [2, 12]: 250-275; Viability [4, 12]: >75% |
| Cn1cnc(N)c2ncnc1-2 [Compound 3-Methyladenine, 3-Methyladenine] | 45-55 | 45-55 | 35-45 |  | 100 | 100 | 100% |  |  |  | 1.5 to 1.75 |  | 1.25 to 1.5 | 1.25 to 1.5 | 0.75 to 1 | >150 | >150 | 120-135 | 90-105 | fold induction at 0.1 µM ([1]; 24 h): 1.5 to 1.75; fold induction at 1 µM ([1]; 24 h): 1.25 to 1.5; fold induction at 10 µM ([2]; 24 h): 0.5 to 0.75; Viability [4, 13]: >75%; Viability [4, 14]: >75%; Viability [4, 15]: >75%; Viability [4, 16]: >75% |
| Nc1ccccc1NC(=O)c1ccc(CNC(=O)OCc2cccnc2)cc1 [Entinostat, reference compound] |  |  |  | 300-325 |  |  |  |  | 35-45 |  |  | 1.25 to 1.5 | 1.75 to 2 |  |  |  |  |  |  | Viability ([3]; human, 24 h, 10000 nM): >75%; Viability ([4]; human, 24 h, 100 nM): >75% |
| CC[C@@]1([C@@H]2O[C@@H]([C@H]3O[C@@](O)(CO)[C@H](C)C[C@@H]3C)C[C@@H]2C)CC[C@H]([C@]2(C)CC[C@]3(C[C@H](O)[C@@H](C)[C@@H]([C@@H](C)[C@@H](OC)[C@H](C)C(=O)O)O3)O2)O1 [Monensin sodium salt] | <35 | 55-65 |  | 150-175 | >75 | >75 |  | >75% | 55-65 | 50-75% | 0.75 to 1 | 1.5 to 1.75 | 1.25 to 1.5 | 1.25 to 1.5 | 2 to 3 |  |  |  |  | fold induction at 0.1 µM ([1]; 24 h): 1.75 to 2; Number of Gigasomes Produced [2, 12]: 150-175; Number of Gigasomes Produced [2, 9]: 250-275; Viability [4, 12]: >75%; Viability [4, 9]: 50-75% |
| O=c1ncn2nc(Sc3ccc(F)cc3F)ccc2c1-c1c(Cl)cccc1Cl [Neflamapimod] | 30-35 | 25-30 | 20-25 |  | 100 | >75 | 100% |  | 15-20 | 100% | 0.75 to 1 | 0.5 to 0.75 | 0.75 to 1 | 1 to 1.25 | 0.75 to 1 | 120-135 | 90-105 | 75-90 | 75-90 | fold induction at 0.1 µM ([1]; 24 h): 0.75 to 1; fold induction at 1 µM ([1]; 24 h): 0.5 to 0.75; fold induction at 10 µM ([2]; 24 h): 0.75 to 1; Viability ([4]; human, 24 h, 10 nM): 100.0%; Viability ([4]; human, 24 h, 100 nM): 100.0%; Viability ([4]; human, 24 h, 1000 nM): >75%; Viability ([4]; human, 24 h, 10000 nM): 100.0% |
| CC(=O)O[C@H]1C(=O)[C@@]2(C)[C@H]([C@H](OC(=O)c3ccccc3)[C@]3(O)C[C@H](OC(=O)[C@H](O)[C@@H](NC(=O)c4ccccc4)c4ccccc4)C(C)=C1C3(C)C)[C@]1(OC(C)=O)CO[C@@H]1C[C@@H]2O [Paclitaxel] | 55-65 |  |  |  |  |  |  |  |  |  | 1.5 to 1.75 |  |  | 1.5 to 1.75 |  |  |  |  |  | Number of Gigasomes Produced [2, 12]: 150-175; Viability ([3]; human, 24 h, 10 nM): >75%; Viability ([4]; human, 24 h, 10 nM): >75% |
| CCCCCCCCCCCCCCOc1ccc(C(=O)O)o1 [TOFA] |  |  |  |  |  |  |  |  |  |  |  |  |  |  |  | 120-135 | 105-120 | 105-120 | 75-90 | Fold Change of Gigasomes Produced vs. DMSO [2, 13]: 1.0-1.25; Fold Change of Gigasomes Produced vs. DMSO [2, 14]: 1.0-1.25; Fold Change of Gigasomes Produced vs. DMSO [2, 15]: 0.75-1.0; Fold Change of Gigasomes Produced vs. DMSO [2, 16]: 0.75-1.0; Viability [4, 13]: >75%; Viability [4, 14]: 100.0%; Viability [4, 15]: >75%; Viability [4, 16]: 100.0% |
| CC1=C(O)C(=O)C=C2C1=CC=C1[C@@]2(C)CC[C@@]2(C)[C@@H]3C[C@](C)(C(=O)O)CC[C@]3(C)CC[C@]12C [Tripterin, reference compound] |  |  | 75-85 | <150 |  |  | >75% | >75% |  |  |  |  |  |  |  |  |  |  |  | Fold Change of Gigasomes Produced vs. DMSO ([1]; dose 1000 nM): 2.0-3.0; Fold Change of Gigasomes Produced vs. DMSO [2, 5]: 0.75-1.0; Fold Change of Gigasomes Produced vs. DMSO [2, 9]: 3.0-4.0; Number of Gigasomes Produced [2, 9]: 375-400; Viability [4, 9]: 50-75% |
| COc1cc(O)c2c(c1)oc(=O)c1c3cc(O)c(O)cc3oc21 [Wedelolactone, reference compound] |  |  |  |  |  |  |  |  |  |  |  |  | 0.5 to 0.75 | 0.5 to 0.75 | 0.5 to 0.75 | 75-90 | 75-90 | 50-75 | <20 | gigasome production, fold-change compared to DMSO ([1]; Oleuropein across doses, Wedelolactone 10,000 nM, 24 h): < 0.2; fold induction at 10 µM ([2]; 24 h): < 0.25; downregulation of gigasome production ([2]; cardiomyocytes, doses 10-10,000 nM, 24 h): dose-dependent downregulation; Viability ([4]; human, 24 h, 10 nM): 100.0%; Viability ([4]; human, 24 h, 100 nM): 100.0%; Viability ([4]; human, 24 h, 1000 nM): >75%; Viability ([4]; human, 24 h, 10000 nM): >75% |
